The text below walks through data of patent US9428439B2, “Hydrobenzamide derivatives as inhibitors of Hsp90” (priority 2006, dated 2016).

“Also recorded” adds a separate entry of the source.

One data set is described as follows: Rate of solubility. The format is physicochemical. As to conditions: compared with the free base and other salts tested.
Another data set in a line: Hygroscopicity. It is filed as physicochemical.
Data set [1] in a line: Solid-state stability of crystalline forms (XRPD). It is filed as physicochemical. As to conditions: for stability in air: XRPD. From the text: Samples for X-ray powder diffraction (XRPD) data collection were gently ground by marble mortar and loaded into a crystallographic capillary (from Hampton Research, Quartz or Glass Type 10, 0.4 or 0.7 mm diameter). Diffraction patterns were collected at room temperature using CuKα radiation (λ=1.5418 Å) from a Rigaku rotating anode RU3HR, Osmic blue confocal optics, ¼ c goniometer and a Rigaku HTC image plate detector. 2D Images were collected while spinning φ axis with a detector to crystal distance of 250 mm. Data collection was controlled by CrystalClear software and 2D images were converted to 1D plot (2θ vs. Intensity) by Datasqueeze (intensity averaged over the azimuthal angle 0≦χ≦360° for […] 3-30° in 0.02° steps). In house program AstexXRPD was used for manipulation and visualisation of 1D XRPD patterns.

Another data set has as its target hERG (Homo sapiens, UniProt Q12809). Nature of the data set: hERG activity. For orientation: hERG is a cardiac potassium channel; its block is linked to QT prolongation.
The subject of data set [2] is human colon cancer cell line HCT116. Nature of the data set: Anti-proliferative activity (Alamar Blue assay). The format is cell-based. The conditions noted are these: HCT-116. The procedure:
The anti-proliferative activities of compounds of the invention can be determined by measuring the ability of the compounds to inhibition of cell growth in a number of cell lines such as the human colon cancer cell line HCT116. Inhibition of cell growth is measured using the Alamar Blue assay (Nociari, M. M, Shalev, A., Benias, P., Russo, C. Journal of Immunological Methods 1998, 213, 157-167). The method is based on the ability of viable cells to reduce resazurin to its fluorescent product resorufin. For each proliferation assay cells are plated onto 96 well plates and allowed to recover for 16 hours prior to the addition of inhibitor compounds for a further 72 hours. At the end of the incubation period 10% (v/v) Alamar Blue is added and incubated for a further 6 hours prior to determination of fluorescent product at […]. In the case of the non-proliferating cell assay cells are maintained at confluence for 96 hour prior to the addition of inhibitor compounds for a further 72 hours. The number of viable cells is determined by Alamar Blue assay as before. Cell lines can be obtained from the ECACC (European Collection of cell Cultures).

Data set [3] concerns the target T1, human Hsp90α N-terminal domain (Homo sapiens, UniProt P07900).
T1 construct: purification of the Human Hsp90α N-terminal domain were performed according to published methods; made in house
Nature of the data set: Isothermal titration calorimetry (ITC). The format is binding. The procedure: The ability of the compounds of the invention to bind to human Hsp90 proteins was determined using isothermal titration calorimetry. Isothermal titration calorimetry (ITC) experiments were performed with a VP-ITC titration calorimeter (Microcal Inc., Northampton, Mass., USA). Cloning, expression, and purification of the Human Hsp90α N-terminal domain were performed according to published methods (Jez, J. M. et al, Chem. […] All solutions were filtered and degassed prior to a titration being carried out. The enthalpy change resulting from each injection of ligand was obtained through integration of the calorimetric signal. Data were analysed using Origin 7.0 (Microcal Software Inc., Northampton, Mass.). Heats of dilution were estimated using the final injections of each individual titration and subtracted before data fitting. […] For weakly binding compounds a low c-value ITC method was used (Turnbull […]. Am. Chem. Soc. 2003 Dec. 3; 125(48):14859-66) in which the protein was present at 10-20 μM in the calorimetric cell and the compound concentration was 1-20 mM in the injection syringe. In this type of experiment the stoichiometry parameter (N) was locked at 1 for data fitting. […] In rare cases where compound solubility was limiting, the compound solution was placed in the calorimetric cell and titrated with protein from the injection syringe, maintaining a c-value between 5 and 1000. […]
Background: ITC needs no label: the signal is the heat of the interaction.

Sequence of hERG (Q12809 whole entry): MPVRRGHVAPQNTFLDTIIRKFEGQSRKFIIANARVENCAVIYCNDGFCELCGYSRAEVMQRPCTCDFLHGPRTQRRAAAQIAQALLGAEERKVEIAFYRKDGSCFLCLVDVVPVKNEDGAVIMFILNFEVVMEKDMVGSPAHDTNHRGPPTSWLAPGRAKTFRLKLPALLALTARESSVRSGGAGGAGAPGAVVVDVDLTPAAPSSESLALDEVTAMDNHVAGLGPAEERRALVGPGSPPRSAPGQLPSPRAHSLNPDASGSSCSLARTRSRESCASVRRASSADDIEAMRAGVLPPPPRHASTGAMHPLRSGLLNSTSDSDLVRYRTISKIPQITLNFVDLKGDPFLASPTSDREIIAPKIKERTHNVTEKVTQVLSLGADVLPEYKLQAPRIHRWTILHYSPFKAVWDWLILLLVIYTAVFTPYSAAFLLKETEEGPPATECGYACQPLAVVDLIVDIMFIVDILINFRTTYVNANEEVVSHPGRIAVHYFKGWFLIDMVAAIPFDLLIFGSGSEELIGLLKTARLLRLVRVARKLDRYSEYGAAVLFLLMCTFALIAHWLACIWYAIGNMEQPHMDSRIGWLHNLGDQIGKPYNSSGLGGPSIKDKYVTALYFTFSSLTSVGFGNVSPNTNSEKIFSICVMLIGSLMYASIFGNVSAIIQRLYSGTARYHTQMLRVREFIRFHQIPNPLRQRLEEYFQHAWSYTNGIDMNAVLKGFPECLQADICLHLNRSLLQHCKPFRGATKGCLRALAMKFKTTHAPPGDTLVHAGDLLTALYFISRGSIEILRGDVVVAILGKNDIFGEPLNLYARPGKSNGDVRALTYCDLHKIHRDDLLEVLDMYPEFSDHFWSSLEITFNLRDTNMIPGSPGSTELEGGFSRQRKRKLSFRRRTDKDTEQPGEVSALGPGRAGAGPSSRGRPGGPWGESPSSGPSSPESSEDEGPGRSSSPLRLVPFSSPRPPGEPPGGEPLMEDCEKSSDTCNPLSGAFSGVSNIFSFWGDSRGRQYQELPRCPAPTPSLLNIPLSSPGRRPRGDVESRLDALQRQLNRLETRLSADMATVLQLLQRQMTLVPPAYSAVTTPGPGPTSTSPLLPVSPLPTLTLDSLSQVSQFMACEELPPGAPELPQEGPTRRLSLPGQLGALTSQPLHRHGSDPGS

Turning to `CC(C)c1cc(C(=O)N2Cc3ccc(CN4CCN(C)CC4)cc3C2)c(O)cc1O.C[C@H](O)C(=O)O` [(2,4-dihydroxy-5-isopropyl-phenyl)-[5-(4-methyl-piperazin-1-ylmethyl)-1,3-dihydro-isoindol-2-yl]-methanone L-lactate salt], in the data set “Rate of solubility”, the rate of solubility entry is “better rate of solubility than the free base and other salts tested”. For the same molecule, the hygroscopicity result in “Hygroscopicity” is “non-hygroscopic”.

On to `CC(C)c1cc(C(=O)N2Cc3ccc(CN4CCN(C)CC4)cc3C2)c(O)cc1O.Cl` [Form FH4, (2,4-dihydroxy-5-isopropyl-phenyl)-[5-(4-methyl-piperazin-1-ylmethyl)-1,3-dihydro-isoindol-2-yl]-methanone hydrochloride salt], for which, in data set [1] (listed as FH4, hydrochloride salt), the stability in air result is “unstable and disintegrates in air”.

The IC50 is the midpoint of a concentration-inhibition curve. By Kd is commonly meant the equilibrium constant for the complex coming apart. As for `CC(C)c1cc(C(=O)N2Cc3ccc(CN4CCN(C)CC4)cc3C2)c(O)cc1O` [Compound (1), (2,4-dihydroxy-5-isopropyl-phenyl)-[5-(4-methyl-piperazin-1-ylmethyl)-1,3-dihydro-isoindol-2-yl]-methanone], at hERG, the hERG activity result is reported as “low hERG activity” and the “mean IC50 value against hERG relative to the IC50 values of the compound in cellular proliferation assays” value was “greater than 30 times”. Further, the IC50 on hERG (read-out: mean IC50 value against hERG) was > 15 µM. Also, the concentration for half-maximal inhibition (IC50) in data set [2] is < 100 nM. In data set [3], the Kd was < 100 nM.

With `CC(C)c1cc(C(=O)N2Cc3ccc(CN4CCN(C)CC4)cc3C2)c(O)cc1O.O=S(=O)(O)O` [Form FS5, (2,4-dihydroxy-5-isopropyl-phenyl)-[5-(4-methyl-piperazin-1-ylmethyl)-1,3-dihydro-isoindol-2-yl]-methanone sulphate salt], the “stability of the crystalline form (stable / unstable form)” value (“stability … (stable / unstable form)” for short) in data set [1] (listed as FS5, sulphate salt) was “stable forms”; in data set [1] (listed as FS53, sulphate salt), “stable form”.

With `CC(C)c1cc(C(=O)N2Cc3ccc(CN4CCN(C)CC4)cc3C2)c(O)cc1O` [Form FB6, (2,4-dihydroxy-5-isopropyl-phenyl)-[5-(4-methyl-piperazin-1-ylmethyl)-1,3-dihydro-isoindol-2-yl]-methanone], the stability in air result in data set [1] (listed as FB6) was “stable in air; also recorded: stable on air”.

As for `CC(C)c1cc(C(=O)N2Cc3ccc(CN4CCN(C)CC4)cc3C2)c(O)cc1O.O=S(=O)(O)O` [Form FS6, (2,4-dihydroxy-5-isopropyl-phenyl)-[5-(4-methyl-piperazin-1-ylmethyl)-1,3-dihydro-isoindol-2-yl]-methanone sulphate salt], in data set [1] (listed as FS6, sulphate salt), the “stability at 40° C. and 75% RH” value is recorded as “transforms into form FS3”; the stability in air result is listed as “stable in air”; the “stability … (stable / unstable form)” value was “stable forms”.

Take `CC(C)c1cc(C(=O)N2Cc3ccc(CN4CCN(C)CC4)cc3C2)c(O)cc1O.O=S(=O)(O)O` [Form FS1, (2,4-dihydroxy-5-isopropyl-phenyl)-[5-(4-methyl-piperazin-1-ylmethyl)-1,3-dihydro-isoindol-2-yl]-methanone sulphate salt]: in data set [1] (listed as FS1, sulphate salt), the stability in air entry is “unstable on air and transforms to form FS3”; the “stability … (stable / unstable form)” value is on record as “unstable forms”.

Regarding `CC(C)c1cc(C(=O)N2Cc3ccc(CN4CCN(C)CC4)cc3C2)c(O)cc1O.O=S(=O)(O)O` [Form FS3, (2,4-dihydroxy-5-isopropyl-phenyl)-[5-(4-methyl-piperazin-1-ylmethyl)-1,3-dihydro-isoindol-2-yl]-methanone sulphate salt], the “stability … (stable / unstable form)” value in data set [1] (listed as FS3, sulphate salt) is recorded as “stable form”.

With `CC(C)c1cc(C(=O)N2Cc3ccc(CN4CCN(C)CC4)cc3C2)c(O)cc1O` [Form FB5, (2,4-dihydroxy-5-isopropyl-phenyl)-[5-(4-methyl-piperazin-1-ylmethyl)-1,3-dihydro-isoindol-2-yl]-methanone], the stability in air result in data set [1] (listed as FB5) is recorded as “unstable in air; also recorded: transforms to FB6 in air; also recorded: conversion to form FB6”.

For `CC(C)c1cc(C(=O)N2Cc3ccc(CN4CCN(C)CC4)cc3C2)c(O)cc1O.C[C@H](O)C(=O)O` [Form FL3, (2,4-dihydroxy-5-isopropyl-phenyl)-[5-(4-methyl-piperazin-1-ylmethyl)-1,3-dihydro-isoindol-2-yl]-methanone L-lactate salt], in data set [1] (listed as FL3), the stability in air result is on record as “transforms in air into form FL1; also recorded: conversion to form FL1” and the “stability … (stable / unstable form)” value is given as “unstable form”.

Turning to `CC(C)c1cc(C(=O)N2Cc3ccc(CN4CCN(C)CC4)cc3C2)c(O)cc1O.Cl` [Form FH1, (2,4-dihydroxy-5-isopropyl-phenyl)-[5-(4-methyl-piperazin-1-ylmethyl)-1,3-dihydro-isoindol-2-yl]-methanone hydrochloride salt], the stability in air result in data set [1] (listed as FH1, hydrochloride salt) was “unstable in air”. For the same molecule, in “Hygroscopicity”, the hygroscopicity result was “very hygroscopic and dissolves in air moisture”.

Turning to `CC(C)c1cc(C(=O)N2Cc3ccc(CN4CCN(C)CC4)cc3C2)c(O)cc1O.O=S(=O)(O)O` [Form FS4, (2,4-dihydroxy-5-isopropyl-phenyl)-[5-(4-methyl-piperazin-1-ylmethyl)-1,3-dihydro-isoindol-2-yl]-methanone sulphate salt], the “stability in a dry environment” value in data set [1] (20° C., 11% RH) was “transformation of form FS4 in a dry environment”. Besides, in data set [1] (listed as FS4, sulphate salt), the “stability … (stable / unstable form)” value was “stable form”.

As to `CC(C)c1cc(C(=O)N2Cc3ccc(CN4CCN(C)CC4)cc3C2)c(O)cc1O` [Form FB3, (2,4-dihydroxy-5-isopropyl-phenyl)-[5-(4-methyl-piperazin-1-ylmethyl)-1,3-dihydro-isoindol-2-yl]-methanone], the “stability at 40° C. and 75% RH” value in data set [1] was “stable in air at 40 °C and in 75% relative humidity for at least one month; also recorded: stable in air and at 40 °C and 75% RH for at least one month”. Moreover, the stability in air entry in data set [1] (listed as FB3) is “stable in air”.
